Measured values as given in ChEMBL document CHEMBL1201862, “PubChem BioAssay data set” (2004).
Calls of active or inactive are those of the source.

What was measured:
[1] = molecular target: Bifunctional protein GlmU (Mycobacterium tuberculosis, UniProt P9WMN3); assay: Inhibitors of Mycobacterial Glucosamine-1-phosphate acetyl transferase (GlmU). Secondary screen.; design: species or system Mycobacterium tuberculosis H37Rv
[2] = molecular target: T1, Carboxy-terminal domain RNA polymerase II polypeptide A small phosphatase 1 (Homo sapiens, UniProt Q9GZU7); assay: CTDSP1 inhibitors, concentration-response, biochemical, absorbance readout, ultra-high-throughput screen actives (AID 540297); assay type: functional
T1 sequence (Q9GZU7 whole entry): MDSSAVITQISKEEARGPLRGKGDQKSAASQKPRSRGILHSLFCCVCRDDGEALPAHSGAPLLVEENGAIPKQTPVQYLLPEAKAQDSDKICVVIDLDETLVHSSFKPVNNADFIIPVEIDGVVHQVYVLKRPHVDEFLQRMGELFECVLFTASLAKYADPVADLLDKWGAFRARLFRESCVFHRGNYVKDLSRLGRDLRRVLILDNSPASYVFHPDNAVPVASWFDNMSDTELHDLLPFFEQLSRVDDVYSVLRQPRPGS

Caspase-6 = molecular target: T2, Caspase-6 (Homo sapiens, UniProt P55212); assay: inhibition of CASP6 peptide cleavage – biochemical, VEID-R110 fluorescence, cherry-pick, dose response (AID 720632)
T2 sequence (P55212 whole entry): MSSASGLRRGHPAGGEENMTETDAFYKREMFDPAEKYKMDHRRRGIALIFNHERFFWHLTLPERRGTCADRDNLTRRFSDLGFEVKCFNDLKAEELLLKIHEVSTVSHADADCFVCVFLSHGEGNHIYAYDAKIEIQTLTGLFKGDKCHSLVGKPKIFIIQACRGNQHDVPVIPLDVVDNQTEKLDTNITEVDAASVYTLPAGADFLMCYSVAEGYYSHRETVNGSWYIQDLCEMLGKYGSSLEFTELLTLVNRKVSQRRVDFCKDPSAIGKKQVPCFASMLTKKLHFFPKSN

cells [3] = conditions: HEK293
Estrogen receptor beta = Estrogen receptor beta (Homo sapiens, UniProt Q92731);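 also: recombinant ER-beta bound to coactivator SRC1 peptide in presence of estradiol agonist; inhibitors block coactivator peptide binding and lower the FRET signal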
[4] = molecular target: Mitogen-activated protein kinase 10 (Homo sapiens, UniProt P53779); assay: Dose response biochemical screening assay for inhibitors of c-Jun N-Terminal Kinase 3 (JNK3). [Related pubchem assays: 746 ]
[5] = molecular target: T3, Oxysterols receptor LXR-beta (Homo sapiens, UniProt P55055); assay type: functional, cell-based;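 also: Cell-based luminescence dose-response assay of agonist activity at LXR, run as a confirmatory counterscreen to a daf-12 agonist screen; agonist potency from rising luciferase signal of a Gal4-LXR reporter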
T3 sequence (P55055 whole entry): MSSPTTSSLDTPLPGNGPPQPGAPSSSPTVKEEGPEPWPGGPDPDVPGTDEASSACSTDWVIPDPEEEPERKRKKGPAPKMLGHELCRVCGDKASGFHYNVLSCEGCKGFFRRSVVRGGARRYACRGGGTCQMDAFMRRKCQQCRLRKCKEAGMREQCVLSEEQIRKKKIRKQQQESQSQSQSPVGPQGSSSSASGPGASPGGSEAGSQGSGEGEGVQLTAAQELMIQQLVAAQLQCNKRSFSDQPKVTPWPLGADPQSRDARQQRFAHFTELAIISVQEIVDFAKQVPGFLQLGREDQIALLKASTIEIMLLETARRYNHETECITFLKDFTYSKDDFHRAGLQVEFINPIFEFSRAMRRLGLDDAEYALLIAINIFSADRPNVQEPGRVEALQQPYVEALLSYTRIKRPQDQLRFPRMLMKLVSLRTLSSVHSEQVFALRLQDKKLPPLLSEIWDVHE

cells [6] = assay: cells
[7] = Luminescence Cell-Based Dose Response to Identify Activators of 5'UTR Stem-Loop Driven Prion Protein mRNA Translation in H4-C Neuroglioblastoma Cells. [Related pubchem assays: 1829 (Project Summary), 1814 (Primary HTS)]; assay type: functional
[8] = Luminescence Cell-Based Dose Response HTS to Identify Activators of Luciferase Translation or Activity in H4 […] Cells. [Related pubchem assays: 1829 (Project Summary), 1814 (Primary HTS)]; assay type: functional
[9] = Luminescence Cell-Based Dose Response to Identify Activators of Luciferase Translation or Activity in H4-C Neuroglioblastoma Cells. [Related pubchem assays: 1829 (Project Summary), 1814 (Primary HTS)]; assay type: functional
[10] = Luminescence Cell-Based Dose Confirmation to Identify Activators of 5'UTR Stem-Loop Driven Alpha-Synuclein mRNA Translation in H4 Neuroglioblastoma Cells. [Related pubchem assays: 1829 (Project Summary), 1814 (Primary HTS)]; assay type: functional
[11] = Luminescence-based cell-based high throughput dose response assay to identify activators of the DAF-12 from the parasite S. stercoralis (ssDAF-12).; assay type: functional
[12] = molecular target: T3, Oxysterols receptor LXR-beta; assay: LXR agonists, Gal4 luciferase reporter, dose response, counter-screen for ssDAF-12 agonist project, cell-based, luminescence, HEK293, S. stercoralis campaign (AID 720737); assay type: functional; conditions: read-out: IC50 (the source's name)
Paired box protein Pax-8 = Paired box protein Pax-8 (Homo sapiens, UniProt Q06710); assay: PAX8 transcriptional activity inhibition in RMG-I – RMG-I cells, luciferase, cherry-pick, dose response (AID 687027); assay type: functional, cell-based;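 also: luciferase reporter driven by Pax8 target thyroperoxidase promoter measured by SteadyGlo luminescence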
[13] = inhibitors acting on PAX2 in cells – cell-based, plate reader, dry powder samples, selectivity assay for PAX8 inhibitor project, dose response (AID 743048); assay type: functional;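 also: HEK293 cells carrying a WT1 promoter luciferase reporter driven by expressed Pax2; potency is for inhibition of Pax2 driven reporter signal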
[14] = COV362 cell viability loss – plate reader, dry powder, SA12, cytotoxicity control for PAX8 inhibitor project, dose response (AID 743144); assay type: functional, cell-based
[15] = PAX5 cellular inhibition readout – cell-based, plate reader, dry powder samples, selectivity assay for PAX8 inhibitor project, dose response (AID 743047); assay type: functional;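 also: HEK293 cells carrying a Pax5 driven CD19 promoter luciferase reporter; potency of inhibitors that lower reporter luminescence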
[16] = OVCAR8 cell viability loss – plate reader, dry powder samples, PAX8 project, dose response (AID 743197); assay type: functional, cell-based; conditions: OVCAR-8
[17] = PAX8-dependent cell viability loss – plate reader, dry powder, dose response (AID 743049); assay type: functional, cell-based
[18] = growth inhibition of yeast DHODH-expressing 3D7 parasites – SYBR Green, dry powder samples, dose response (AID 1159570); assay type: functional, cell-based;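 also: parasite growth measured after 72 hours of compound exposure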
[19] = toxicity to human HepG2 hepatoma cells – cell-based, plate reader, dry powder samples, cytotoxicity control, dose response (AID 1159569); assay type: functional;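 also: inhibitor potency with signal falling toward the positive control level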
[20] = P. falciparum Dd2 growth inhibitors, dose response, SYBR Green, cherry-picked samples (AID 1159567); assay type: functional, cell-based
[21] = Dd2 malaria parasite growth inhibition potency – SYBR Green, dry powder samples, dose response (AID 1159566); assay type: functional, cell-based;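 also: potency for growth inhibition with lower SYBR green DNA signal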
[22] = growth inhibition of PfATP4-mutant resistant parasites – NITD609-resistant line, SYBR Green, dry powder, dose response (AID 1159571); assay type: functional, cell-based;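 also: parasites synchronized at ring stage by sorbitol before testing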
[23] = CellTiter-Glo luminescence survival assay, SW480 colon tumor line, concentration-response curve, half-maximal inhibitory concentration (AID 1117338); assay type: functional
[24] = RKO cell viability reduction, dose response, CellTiter-Glo luminescence (AID 1117322); assay type: functional
[25] = cytotoxicity toward HCT116 cells – cell-based, CellTiter-Glo luminescence, IC50, dose response (AID 1117332); assay type: functional; conditions: HCT-116
[26] = SNU-C1 cell viability reduction, dose response, CellTiter-Glo luminescence (AID 1117323); assay type: functional, cell-based
[27] = cytotoxicity toward Colo320 cells – cell-based, CellTiter-Glo luminescence, IC50, dose response (AID 1117334); assay type: functional; conditions: COLO 320
[28] = cytotoxicity toward HT-29 cells – cell-based, CellTiter-Glo luminescence, IC50, dose response (AID 1117330); assay type: functional
[29] = Reduced DLD-1 viability, concentration-response, CellTiter-Glo luminescence (AID 1117352); assay type: functional
[30] = HCT116 cell viability decrease, GSK3B pretreatment – CellTiter-Glo, IC50, dose response (AID 1117339); assay type: functional; conditions: HCT-116
[31] = blockers of HIV-1 envelope-mediated cell-cell fusion – cherry-pick, dose response (AID 652057); assay type: functional, cell-based
[32] = viability loss in CEM21 cells – cell-based, CellTiter-Glo luminescence, cherry-picked, cytotoxicity control for viral fusion inhibitor project, dose response (AID 652042); assay type: functional;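 also: potency for signal decrease meaning cytotoxicity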
[33] = blockers of HIV-1 ZM109 envelope-driven cell-cell fusion – HeLa effector, CEM target cells, luciferase, cherry-pick, dose response (AID 652058); assay type: functional, cell-based;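 also: luciferase signal from HIV-1 Env mediated cell-cell fusion of effector and target cells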
[34] = off-target signal loss in HeLa-CEM21 co-culture – HeLa F-luc CTL cells, cherry-picked, counter-screen for HIV-1 Env fusion inhibitor project, dose response (AID 652040); assay type: functional, cell-based;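 also: potency for signal decrease marking cytotoxic or nonspecific inhibition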
[35] = HIV-1 AD8 envelope cell-cell fusion blockers – cherry-pick, dose response (AID 652062); assay type: functional, cell-based;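 also: luciferase signal from cell-cell fusion driven by HIV-1 clade B AD8 Env; potency is for inhibitors of fusion seen as a drop in luminescence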

Estrogen receptor beta, sequence (Q92731 whole entry): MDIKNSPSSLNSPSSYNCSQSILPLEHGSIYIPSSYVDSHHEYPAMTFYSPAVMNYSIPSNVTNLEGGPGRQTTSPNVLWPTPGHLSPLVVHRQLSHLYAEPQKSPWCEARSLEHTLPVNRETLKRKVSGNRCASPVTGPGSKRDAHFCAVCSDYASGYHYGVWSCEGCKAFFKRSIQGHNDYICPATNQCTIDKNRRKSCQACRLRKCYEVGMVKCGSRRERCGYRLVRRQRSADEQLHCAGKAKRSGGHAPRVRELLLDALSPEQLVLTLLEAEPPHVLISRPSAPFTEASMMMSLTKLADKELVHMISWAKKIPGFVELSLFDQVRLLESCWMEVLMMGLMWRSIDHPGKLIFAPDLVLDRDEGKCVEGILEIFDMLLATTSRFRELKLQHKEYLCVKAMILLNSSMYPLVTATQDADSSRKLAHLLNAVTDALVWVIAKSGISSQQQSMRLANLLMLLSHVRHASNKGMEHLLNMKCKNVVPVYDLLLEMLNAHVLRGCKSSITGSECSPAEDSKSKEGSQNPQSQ
Mitogen-activated protein kinase 10, sequence (P53779 whole entry, the tested form may be a part): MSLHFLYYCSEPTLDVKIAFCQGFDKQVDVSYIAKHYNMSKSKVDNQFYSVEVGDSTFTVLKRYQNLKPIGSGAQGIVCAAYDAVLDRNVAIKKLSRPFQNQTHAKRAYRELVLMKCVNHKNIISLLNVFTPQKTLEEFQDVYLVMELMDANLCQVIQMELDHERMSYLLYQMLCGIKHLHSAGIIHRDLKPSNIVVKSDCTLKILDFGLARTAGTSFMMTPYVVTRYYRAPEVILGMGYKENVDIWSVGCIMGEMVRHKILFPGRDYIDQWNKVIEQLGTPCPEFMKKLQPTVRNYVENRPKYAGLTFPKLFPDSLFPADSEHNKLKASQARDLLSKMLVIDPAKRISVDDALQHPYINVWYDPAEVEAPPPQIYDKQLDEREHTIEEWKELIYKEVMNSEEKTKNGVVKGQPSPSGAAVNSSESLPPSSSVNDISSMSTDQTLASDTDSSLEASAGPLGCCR
Paired box protein Pax-8, sequence (Q06710 whole entry): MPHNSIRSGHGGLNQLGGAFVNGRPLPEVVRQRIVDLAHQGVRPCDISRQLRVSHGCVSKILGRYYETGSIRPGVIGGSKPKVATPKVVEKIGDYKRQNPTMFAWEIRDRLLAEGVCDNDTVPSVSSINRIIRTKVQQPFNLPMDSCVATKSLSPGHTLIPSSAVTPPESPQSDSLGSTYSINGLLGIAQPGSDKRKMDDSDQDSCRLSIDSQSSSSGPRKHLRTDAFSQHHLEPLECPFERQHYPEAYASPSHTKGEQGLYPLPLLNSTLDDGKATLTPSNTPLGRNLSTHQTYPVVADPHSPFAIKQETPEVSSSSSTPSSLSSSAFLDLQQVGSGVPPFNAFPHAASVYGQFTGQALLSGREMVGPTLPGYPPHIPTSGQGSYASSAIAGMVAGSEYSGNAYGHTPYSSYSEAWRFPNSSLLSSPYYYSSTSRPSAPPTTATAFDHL
Bifunctional protein GlmU, sequence (P9WMN3 whole entry, the tested form may be a part): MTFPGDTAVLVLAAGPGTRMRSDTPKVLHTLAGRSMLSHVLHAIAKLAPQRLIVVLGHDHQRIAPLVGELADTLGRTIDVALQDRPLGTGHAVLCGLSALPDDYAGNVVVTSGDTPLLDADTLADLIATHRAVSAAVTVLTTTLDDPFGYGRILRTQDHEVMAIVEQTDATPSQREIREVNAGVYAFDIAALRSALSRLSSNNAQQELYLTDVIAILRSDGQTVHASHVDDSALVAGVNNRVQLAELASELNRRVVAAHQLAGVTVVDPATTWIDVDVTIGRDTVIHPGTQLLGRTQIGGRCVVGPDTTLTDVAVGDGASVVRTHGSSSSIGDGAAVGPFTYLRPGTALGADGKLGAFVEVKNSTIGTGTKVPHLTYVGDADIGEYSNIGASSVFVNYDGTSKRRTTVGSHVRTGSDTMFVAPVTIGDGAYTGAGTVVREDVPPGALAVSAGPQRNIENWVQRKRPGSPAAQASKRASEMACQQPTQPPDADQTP

Structure (SMILES): O=C(O)c1ccc(N2C(=O)c3cccc4c(C(=O)O)ccc(c34)C2=O)cc1
- IC50 [1]: 98.9 µM (active)
- IC50 [2]: 3.53 µM (active)
- AC50 (Caspase-6): 7.17 µM (active)

Structure (SMILES): Cn1nc(-c2ccc(Cl)cc2)c2cc(C(=O)N3CCN(c4ccccc4)CC3)sc21
- AC50 (cells [3]): > 52 µM (inactive)

Structure (SMILES): COc1ccc(N2CC(C(=O)O)CC2=O)cc1 (stereo not given)
- IC50 (Estrogen receptor beta): > 50 µM (not active)

Structure (SMILES): O=C(CCn1cnc2ccccc2c1=O)Nc1ccc(S(=O)(=O)N2CCCC2)cc1
- IC50 [4]: 38.2 µM (not active)

Structure (SMILES): CC(C)(C)NC(=O)NC(=O)COc1ccc(Br)cc1Br
- EC50 [5]: > 67.5 µM (inactive)
- EC50 (cells [6]): > 67.5 µM (inactive)

Structure (SMILES): COc1ccc(-c2ccc(-c3nnn(CC(C)=O)n3)cc2)cc1
- EC50 [7]: 0.521 µM (active)
- EC50 [8]: < 0.1 µM (inconclusive)
- EC50 [9]: 0.257 µM (active)
- EC50 [10]: 0.364 µM (active)

Structure (SMILES): COc1ccc(C(=N)NOC(=O)c2cccs2)cc1
- IC50 [11]: > 67.6 µM (inactive)
- EC50 [12]: > 67.6 µM (inactive)

Structure (SMILES): COc1cccc(C#Cc2ccc([C@@H]3[C@@H](C#N)N(C(=O)C4CCCCC4)[C@H]3CO)cc2)c1
- AC50 (Paired box protein Pax-8): 8.61 µM (active)
- AC50 [13]: 46.5 µM (active)
- AC50 [14]: > 70 µM (inactive)
- AC50 [15]: 5.72 µM (active)
- AC50 [16]: > 70 µM (inactive)
- AC50 [17]: 15.9 µM (active)
- AC50 [18]: 1.11 µM (active)
- AC50 [19]: 26.5 µM (active)
- AC50 [20]: 0.865 µM (active)
- AC50 [21]: 0.422 µM (active)
- AC50 [22]: 1.13 µM (active)

Structure (SMILES): O=C(NC(=O)c1c(F)cccc1F)Nc1ccc(Cl)c(Oc2ncc(C(F)(F)F)cc2Cl)c1 [FLUAZURON]
- IC50 [23]: > 20 µM (inactive)
- IC50 [24]: 11.8 µM (inactive)
- IC50 [25]: > 20 µM (inactive)
- IC50 [26]: > 20 µM (inactive)
- IC50 [27]: > 20 µM (inactive)
- IC50 [28]: > 20 µM (inactive)
- IC50 [29]: > 20 µM (inactive)
- IC50 [30]: 10.6 µM (inactive)

Structure (SMILES): Fc1cccc(Cc2c(-c3ccco3)nc3c4ccccc4ccn23)c1
- AC50 [31]: 1.12 µM (active)
- AC50 [32]: 44 µM (active)
- AC50 [33]: 1.2 µM (active)
- AC50 [34]: 0.907 µM (active)
- AC50 [35]: 5.56 µM (active)
- IC50 [11]: > 67.5 µM (inactive)
- EC50 [12]: > 67.5 µM (inactive)
